Laboratory results from ChEMBL document CHEMBL1201862, “PubChem BioAssay data set” (2004).
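Growth conditions: 96-well plates. Treatment: test compound, 48 hours, 5 concentrations. Analysis: linear interpolation between bracketing concentrations; unreached endpoints set to highest concentration. At the GI50, growth is halved.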 Active and inactive are the calls of the source. Cut-off read from the data, not from the text of the source: active = GI50 up to about 1.1 µM and inactive = higher.

How the values were obtained:
Assay in all cases: NCI-60 cell line screen, 48 h
SNB-78 = test system: SNB-78
SNB-75 = test system: SNB-75
COLO 205 = test system: COLO 205
NCI-H460 = test system: NCI-H460
OVCAR-5 = test system: OVCAR-5
SK-MEL-5 = test system: SK-MEL-5
OVCAR-3 = test system: OVCAR-3
KM12 = test system: KM12
KM-20L2 = test system: KM-20L2
M14 = test system: M14
NCI-H23 = test system: NCI-H23
CCRF-CEM = test system: CCRF-CEM
A498 = test system: A498
HCT-116 = test system: HCT-116
SNB-19 = test system: SNB-19

Measured: GI50

O=C1CCC2(c3ccccc3)Nc3cc(Cl)ccc3N12 (stereo unspecified)
inactive: SNB-78 31.7 µM | SNB-75 16 µM | COLO 205 17.7 µM | NCI-H460 32.7 µM | OVCAR-5 58.9 µM | SK-MEL-5 16.9 µM | OVCAR-3 21.8 µM | KM12 27.6 µM | KM-20L2 30 µM | M14 30.1 µM | NCI-H23 22.3 µM | CCRF-CEM 25.1 µM | A498 35.4 µM

CN1CCOC(C(NC(=O)c2ccccc2)c2ccccc2)C1=O (stereo unspecified)
inactive: SNB-78 > 100 µM | SNB-75 24.3 µM | HCT-116 > 100 µM | COLO 205 > 100 µM | NCI-H460 > 100 µM | OVCAR-5 > 100 µM | SK-MEL-5 > 100 µM | OVCAR-3 > 100 µM | KM12 > 100 µM | KM-20L2 > 100 µM | M14 > 100 µM | NCI-H23 > 100 µM | CCRF-CEM > 100 µM | A498 > 100 µM | SNB-19 > 100 µM

CC1(C)Cc2cc(C(=O)O)c3c(c2C1=O)COCC3
inactive: SNB-78 > 100 µM | SNB-75 > 100 µM | HCT-116 > 100 µM | COLO 205 > 100 µM | NCI-H460 > 100 µM | OVCAR-5 > 100 µM | SK-MEL-5 > 100 µM | OVCAR-3 > 100 µM | KM12 > 100 µM | KM-20L2 > 100 µM | M14 > 100 µM | NCI-H23 > 100 µM | CCRF-CEM > 100 µM | A498 > 100 µM | SNB-19 > 100 µM

COc1ccc(/C=C2\CNC/C(=C\c3ccc(OC)cc3)C2=O)cc1
inactive: SNB-78 28.1 µM | SNB-75 30.4 µM | HCT-116 3.24 µM | COLO 205 49.4 µM | NCI-H460 47.9 µM | OVCAR-5 > 100 µM | SK-MEL-5 > 100 µM | OVCAR-3 35 µM | KM12 15.9 µM | KM-20L2 24.3 µM | M14 > 100 µM | NCI-H23 15.8 µM | CCRF-CEM 12.4 µM | SNB-19 80.2 µM

CN(C)CC1CCCC(CN(C)C)C1OC(=O)c1ccccc1 (stereo unspecified)
inactive: SNB-78 > 100 µM | SNB-75 > 100 µM | HCT-116 > 100 µM | COLO 205 > 100 µM | NCI-H460 > 100 µM | OVCAR-5 > 100 µM | SK-MEL-5 > 100 µM | OVCAR-3 > 100 µM | KM12 > 100 µM | KM-20L2 > 100 µM | M14 > 100 µM | NCI-H23 > 100 µM | CCRF-CEM > 100 µM | A498 > 100 µM

C[C@@]1(CBr)C[C@@](C)(/C=C/Cl)[C@@H](Cl)C[C@H]1Cl
inactive: SNB-78 2.94 µM | SNB-75 16.1 µM | HCT-116 7.03 µM | COLO 205 13.5 µM | OVCAR-5 13.5 µM | SK-MEL-5 13.3 µM | OVCAR-3 10.8 µM | KM12 7.83 µM | KM-20L2 11.6 µM | M14 15.5 µM | NCI-H23 13.3 µM | CCRF-CEM 2.92 µM | A498 16.9 µM | SNB-19 13.5 µM

CCn1c2c(c3ccccc31)C(c1ccccc1)CC1C(=O)N(c3ccccc3)C(=O)C21 (stereo unspecified)
inactive: SNB-78 36.8 µM | SNB-75 17.6 µM | HCT-116 55 µM | COLO 205 > 100 µM | NCI-H460 54.1 µM | OVCAR-5 > 100 µM | SK-MEL-5 31.7 µM | OVCAR-3 > 100 µM | KM12 > 100 µM | KM-20L2 > 100 µM | M14 > 100 µM | NCI-H23 > 100 µM | CCRF-CEM > 100 µM | A498 5.78 µM | SNB-19 50.5 µM

COc1cc2c(cc1OC)C1(c3ccc(Cl)cc3)ON=C(c3ccccc3)N1CS2 (stereo unspecified)
inactive: SNB-78 4.56 µM | SNB-75 > 100 µM | HCT-116 6.37 µM | COLO 205 > 100 µM | NCI-H460 92 µM | OVCAR-5 > 100 µM | SK-MEL-5 > 100 µM | OVCAR-3 > 100 µM | KM12 > 100 µM | KM-20L2 > 100 µM | M14 73.8 µM | NCI-H23 > 100 µM | CCRF-CEM 41 µM | A498 83.2 µM | SNB-19 > 100 µM

CC(=O)O/N=C(Cl)/C(Cl)=N/OC(C)=O
inactive: SNB-78 > 100 µM | SNB-75 > 100 µM | HCT-116 > 100 µM | NCI-H460 > 100 µM | OVCAR-5 > 100 µM | KM12 > 100 µM | KM-20L2 > 100 µM | M14 > 100 µM | NCI-H23 > 100 µM | CCRF-CEM > 100 µM | A498 > 100 µM | SNB-19 > 100 µM

Cc1nnc(N/N=C2\C(=O)Nc3ccccc32)n1N
inactive: SNB-78 > 100 µM | SNB-75 > 100 µM | HCT-116 > 100 µM | COLO 205 67.5 µM | NCI-H460 > 100 µM | OVCAR-5 > 100 µM | SK-MEL-5 > 100 µM | OVCAR-3 > 100 µM | KM12 > 100 µM | KM-20L2 > 100 µM | M14 > 100 µM | NCI-H23 > 100 µM | CCRF-CEM > 100 µM | A498 > 100 µM | SNB-19 > 100 µM

CC(C)(C)c1cc(CCCCCCCC2(CCCCCCCc3cc(C(C)(C)C)cc(C(C)(C)C)c3)OC(COCCOCCCCCC#N)C(COCCOCCCCCC#N)O2)cc(C(C)(C)C)c1 (stereo unspecified)
inactive: SNB-78 > 100 µM | SNB-75 > 100 µM | HCT-116 > 100 µM | COLO 205 > 100 µM | NCI-H460 > 100 µM | OVCAR-5 > 100 µM | SK-MEL-5 > 100 µM | OVCAR-3 > 100 µM | KM12 > 100 µM | KM-20L2 > 100 µM | M14 > 100 µM | NCI-H23 > 100 µM | CCRF-CEM > 100 µM | A498 > 100 µM | SNB-19 > 100 µM

Cc1cc(Br)cc(C)c1NC(=O)C(=O)C(C(=O)c1ccc(Cl)c(Cl)c1)C1OC(=O)c2ccccc21 (stereo unspecified)
inactive: SNB-78 53.3 µM | HCT-116 48.4 µM | COLO 205 47.5 µM | NCI-H460 > 100 µM | OVCAR-5 21.7 µM | OVCAR-3 37.1 µM | KM12 36.8 µM | KM-20L2 34.6 µM | M14 > 100 µM | NCI-H23 95.7 µM | CCRF-CEM 35.2 µM | A498 26.3 µM | SNB-19 82 µM

O=c1oc2cc(O)ccc2c2[nH]c3cc(O)ccc3c12
inactive: SNB-78 43.7 µM | SNB-75 16.3 µM | HCT-116 17.4 µM | COLO 205 23.9 µM | NCI-H460 33 µM | OVCAR-3 20.7 µM | KM12 20.9 µM | KM-20L2 37.2 µM | M14 36.4 µM | NCI-H23 24.5 µM | CCRF-CEM 30.8 µM | A498 36.1 µM | SNB-19 18.6 µM

C#CC1(O)CCC2[C@@H]3CCc4cc(Oc5nc(F)nc(-c6c7ccccc7c(SCC)n6CCC)n5)ccc4C3CC[C@@]21C (stereo partly specified)
inactive: SNB-78 > 100 µM | HCT-116 29.2 µM | COLO 205 > 100 µM | NCI-H460 > 100 µM | OVCAR-5 > 100 µM | SK-MEL-5 63.8 µM | OVCAR-3 > 100 µM | KM12 > 100 µM | KM-20L2 > 100 µM | M14 40.5 µM | NCI-H23 25 µM | CCRF-CEM 39.4 µM | A498 > 100 µM
